# Assay results published in ChEMBL document CHEMBL2321863, “Novel Inverse Binding Mode of Indirubin Derivatives Yields Improved Selectivity for DYRK Kinases” (ACS Med Chem Lett, 2013).
# Molecular target: Glycogen synthase kinase 3 beta (Sus scrofa, UniProt B2LUN4)
# Test: Inhibition of porcine brain GSK3beta using YRRAAVPPSPSLSRHSSPHQSpEDEEE as substrate
# Glycogen synthase kinase 3 beta, sequence (B2LUN4 whole entry): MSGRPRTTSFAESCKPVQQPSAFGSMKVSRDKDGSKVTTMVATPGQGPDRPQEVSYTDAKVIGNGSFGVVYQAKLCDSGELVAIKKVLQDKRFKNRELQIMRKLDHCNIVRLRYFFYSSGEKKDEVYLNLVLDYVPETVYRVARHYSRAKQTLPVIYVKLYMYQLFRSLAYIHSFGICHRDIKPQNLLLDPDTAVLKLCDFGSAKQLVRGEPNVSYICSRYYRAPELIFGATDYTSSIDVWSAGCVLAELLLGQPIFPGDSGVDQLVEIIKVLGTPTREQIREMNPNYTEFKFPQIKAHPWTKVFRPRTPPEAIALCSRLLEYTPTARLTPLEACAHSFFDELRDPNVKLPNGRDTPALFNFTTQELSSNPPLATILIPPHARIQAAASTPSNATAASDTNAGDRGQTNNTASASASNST
compound,measurement,value
Cn1c(O)c(-c2[nH]c3ccccc3c2N=O)c2cccc(Br)c21,IC50,> 10 µM
